According to patent US8653048B2 (Sanlugen Pharmatech Ltd., priority 2009, dated 2014):

Experiments:
[1] = Pharmacokinetics of SL-01 and SL-02 in mice, intragastric; format: in vivo; details: both sexes, Kunming, mouse, plasma, po, SL-01 100 mg/kg intragastric
Description: (§1) Kunming strain white mice (25+1 g, provided by Experimental Animal Center of Shandong University, half of which were male, half were female).
125 mg of SL-01 or SL-02 were weighed accurately and added into 10 mL volumetric flask. Water (containing 0.1% Tween-80) was added to the mark and mixed uniformly to get the suspensions of SL-01 or SL-02.
100 healthy Kunming mice were taken and divided into two groups randomly. The first group was given SL-01 and the second group was given SL-02. Five mice were settled parallel at each time point. SL-01 and SL-02 were administrated intragastricly with a dosage at 100 mg/kg (equivalent to 0.2 mL per mouse). The mice were fasted but allowed to drink for a 12 h period before administration. Blood samples were drawn from eyebase veniplex at 5 min, 15 min, 30 min, 45 min, 1 h, 2 h, 4 h, 6 h, 8 h, 12 h, 24 h, 48 h after the administration and put into heparin sodium treated centrifuge tubes containing 2.5 μL tetrahydrouridine solution (THU, 10 mg/ml) and centrifuged for 15 min at 4000 r/min. Isopropanol (1 mL) was added into the solution and vortexed for 30 s and kept still for 5 min. 2.5 ml of EtOAc was added and votexed and centrifuged at 4000 rpm for 15 minutes. The supernatant was taken and dried by blowing in nitrogen. The dried sample was redissolved in 200 μL HPLC mobile phase solution. 20 μL sample was loaded to the HPLC. The chromatography and peak area was recorded. The plasma concentrations of SL-01 and SL-02 was calculated. The average concentration of SL-01 and SL-02 was plotted with the time.

[2] = Pharmacokinetics of gemcitabine in mice, intravenous and oral; format: in vivo; details: both sexes, Kunming, mouse, plasma, 50 mg/kg; for MRT last: read-out: MRT0-t
Description: as §1
The solution was filtered and sterilized using a 0.22 μm microfiltration membrane.
120 healthy Kunming mice were taken and divided into two groups randomly. […] The second group was given gemcitabine by intravenous injection in a tail vein. Five mice were settled parallel at each time point. The dosage was 50 mg/kg (equivalent to 0.2 mL per mouse). The mice were fasted but allowed to drink for a 12 h period before administration. Blood samples were drawn from eyebase veniplex at 5 min, 15 min, 30 min, 45 min, 1 h, 2 h, 4 h, 6 h, 8 h, 12 h, 24 h, 48 h after the administration and put into hepain sodium treated centrifuge tubes containing 2.5 μL tetrahydrouridine solution (THU, 10 mg/ml) and centrifuged for 15 min at 4000 r/min. Isopropanol (1 mL) was added into the solution and vortexed for 30 s and kept still for 5 min. 2.5 ml of EtOAc was added and votexed and centrifuged at 4000 rpm for 15 minutes. The supernatant was taken and dried by blowing in nitrogen. The dried sample was redissolved in 200 μL HPLC mobile phase solution. 20 μL sample was loaded to the HPLC. The chromatography and peak area were recorded.

SMILES | AUC(0-t) ([1]; analyte SL-01, read-out: AUC0-t, SL-01 Administration Group) | Cmax ([1]; analyte SL-01, read-out: Cmax, SL-01 Administration Group) | MRT last ([1]; analyte SL-01, read-out: MRT0-t, SL-01 Administration Group) | half-life ([1]; analyte SL-01, read-out: T1/2, SL-01 Administration Group (converted)) | Tmax ([1]; analyte SL-01, read-out: Tmax, SL-01 Administration Group) | AUC(0-t) ([2]; iv) | Cmax ([2]; iv) | Tmax ([2]; iv) | half-life ([2]; iv) | MRT last ([2]; iv) | bioavailability ([2]; oral, AUCoral/AUCiv, mice, read-out: Absolute bioavailability) | AUC(0-t) ([2]; po) | Cmax ([2]; po) | Tmax ([2]; po) | half-life ([2]; po) | MRT last ([2]; po)
CCCCCCCCCCCCOC(=O)c1nccnc1C(=O)Nc1ccn([C@@H]2O[C@H](CO)[C@@H](O)C2(F)F)c(=O)n1 [Compound 4, Dodecyl-3-((1-((2R,4R,5R)-3,3-difluoro-4-hydroxy-5-(hydroxymethyl)-tetrahydrofuran-2-yl)-2-oxo-1,2-dihydropyrimidin-4-yl)carbamoyl)pyrazine-2-carboxylate] | 1810 ng·h/mL | 4370 ng/mL | 21.6 min | 31.1 min | 15 min | – | – | – | – | – | – | – | – | – | – | –
Nc1ccn([C@@H]2O[C@H](CO)[C@@H](O)C2(F)F)c(=O)n1 [Gemcitabine, gemcitabine, reference compound] | – | – | – | – | – | 11300 ng·h/mL | 11500 ng/mL | 4.98 min | 58.2 min | 1.07 h | 35.6% | 4020 ng·h/mL | 2600 ng/mL | 30 min | 49.8 min | 1.28 h
